# Columns and labels:
# Type in all cases: functional
# Bos taurus [1] = organism: Bos taurus; assay: Carboxymethylation of bovine brain tubulin pre-incubated with 69 mol compound per mol tubulin
# Bos taurus [2] = organism: Bos taurus; assay: Carboxymethylation of bovine brain tubulin pre-incubated with 34 mol compound per mol tubulin
# Bos taurus [3] = organism: Bos taurus; assay: Carboxymethylation of bovine brain tubulin pre-incubated with 8.6 mol compound per mol tubulin
# Bos taurus [4] = organism: Bos taurus; assay: Carboxymethylation of bovine brain tubulin pre-incubated with 86 mol compound per mol tubulin
# Bos taurus [5] = organism: Bos taurus; assay: Carboxymethylation of bovine brain tubulin pre-incubated with 17 mol compound per mol tubulin
# Bos taurus [6] = organism: Bos taurus; assay: Carboxymethylation of bovine brain tubulin pre-incubated with 0 mol compound per mol tubulin
smiles,measurement,setting,value
CC1=CC(=O)C(=O)C2=C1O[C@@]1(C2)[C@@H](C)CC[C@@H]2[C@@]3(C)CC[C@H](O)C(C)(C)C3CC[C@]21C (stereo partly specified) [STYPOLDIONE],Ratio_[3H]:tubulin,Bos taurus [1],4.8
same,Ratio_[3H]:tubulin,Bos taurus [2],12
same,Ratio_[3H]:tubulin,Bos taurus [3],22
same,Ratio_[3H]:tubulin,Bos taurus [4],4.3
same,Ratio_[3H]:tubulin,Bos taurus [5],16
same,Ratio_[3H]:tubulin,Bos taurus [6],20

# Source: ChEMBL document CHEMBL1123224, “Mechanism of action of the marine natural product stypoldione: evidence for reaction with sulfhydryl groups” (1986)
